From BindingDB's records for doi:10.7270/Q2XP73JZ (The Scripps Research Institute Molecular Screening Center, 2013)

Biological target: T1, Methionine--tRNA ligase (Trypanosoma brucei brucei (strain 927/4 GUTat10.1), UniProt Q38C91)
T1 sequence (Q38C91 whole entry): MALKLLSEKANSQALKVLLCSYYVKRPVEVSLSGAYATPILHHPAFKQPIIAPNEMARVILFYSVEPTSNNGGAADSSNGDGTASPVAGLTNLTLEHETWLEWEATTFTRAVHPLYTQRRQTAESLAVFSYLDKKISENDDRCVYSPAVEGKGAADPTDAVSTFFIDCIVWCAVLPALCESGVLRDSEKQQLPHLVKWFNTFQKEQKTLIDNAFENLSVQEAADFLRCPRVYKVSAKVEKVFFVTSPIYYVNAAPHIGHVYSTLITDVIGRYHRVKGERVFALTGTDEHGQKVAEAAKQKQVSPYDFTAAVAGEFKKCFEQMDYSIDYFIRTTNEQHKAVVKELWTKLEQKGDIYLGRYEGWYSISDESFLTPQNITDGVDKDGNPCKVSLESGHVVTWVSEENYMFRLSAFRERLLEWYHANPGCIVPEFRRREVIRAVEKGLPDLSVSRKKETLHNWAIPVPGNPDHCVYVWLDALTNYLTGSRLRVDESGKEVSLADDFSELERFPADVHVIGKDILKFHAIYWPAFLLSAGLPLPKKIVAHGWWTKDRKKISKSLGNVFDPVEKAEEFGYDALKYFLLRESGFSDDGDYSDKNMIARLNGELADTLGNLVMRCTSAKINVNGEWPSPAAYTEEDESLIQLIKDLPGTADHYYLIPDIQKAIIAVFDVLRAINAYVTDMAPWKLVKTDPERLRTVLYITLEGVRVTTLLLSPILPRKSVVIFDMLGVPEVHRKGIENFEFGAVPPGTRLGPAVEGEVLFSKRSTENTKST

| SMILES | IC50 |
| --- | --- |
| COC(=O)C(C=Nc1ccccc1)NC(=O)c1ccc(Cl)cc1Cl (stereo not drawn) | 2.71 µM |
| N#CC(N=Nc1cc(Cl)cc(Cl)c1)c1nnc2n1CCCCC2 (stereo not drawn) | 16.6 µM |
| Cc1cc2c(c(=O)n1CC1CCCO1)C(c1ccc3c(c1)OCO3)C(C#N)C(=N)O2 (stereo not drawn) | > 119 µM |
| COC(=O)Cn1c(CC(=O)Nc2ccc(Cl)cc2)c(O)n(-c2ccc(Cl)cc2)c1=S | 19.7 µM |
| c1ccc2[nH]c(N=NCc3c[nH]c4ccccc34)nc2c1 [1-(1H-benzimidazol-2-yl)-2-[(Z)-indol-3-ylidenemethyl]diazane] | 32.2 µM |
| Oc1cc(N(CCc2ccccc2)C(=S)Nc2ccccc2)c(O)n1-c1ccc(Br)cc1 [1-[1-(4-bromophenyl)-2,5-bis(oxidanylidene)pyrrolidin-3-yl]-3-phenyl-1-(2-phenylethyl)thiourea] | 0.46 µM |
| C=C(c1ccc(O)cc1)c1sc(=S)n(CCC(=O)O)c1O [3-[(5Z)-5-[1-(4-hydroxyphenyl)ethylidene]-4-oxidanylidene-2-sulfanylidene-1,3-thiazolidin-3-yl]propanoic acid] | 9.47 µM |
| Cc1[nH]c2ccccc2c1CN=Nc1nc2ccccc2[nH]1 [N-(1H-Benzoimidazol-2-yl)-N'-[1-(2-methyl-1H-indol-3-yl)-meth-(E)-ylidene]-hydrazine] | 36.9 µM |
| COc1cccc(NC(=O)CSC(N)=O)c1 [S-[2-(3-methoxyanilino)-2-oxoethyl] thiocarbamate] | 1.57 µM |
| Oc1cc(SCc2nc3ccccc3[nH]2)c(O)n1-c1cccc(Cl)c1 [SMR000143477] | 2.6 µM |
| COc1cc(CN=Nc2nc3ccccc3[nH]2)ccc1O [SMR000212232] | 102 µM |
| Clc1cccc(N=NC(Cc2nc3ccccc3[nH]2)c2ccccc2)c1 (stereo not drawn) [SMR000263830] | 3.09 µM |
| COc1ccc(NC(=O)Nc2cccc3cccnc23)cc1 [US9034574, XXIV] | 2.82 µM |

Now from value to compound:

| IC50 | SMILES |
| --- | --- |
| > 119 µM | Cc1ccc(C(=O)NN2C(=O)/C(=C/c3nc4ccccc4[nH]3)SC2=S)cc1 |
| > 119 µM | O=C(NCc1cc(Br)cc(Br)c1OC(=O)c1ccccc1[N+](=O)[O-])c1ccccc1 |
| > 119 µM | N#Cc1ccccc1CSc1ccc(-c2nc3ccccc3[nH]2)cn1 [2-[5-(1H-Benzoimidazol-2-yl)-pyridin-2-ylsulfanylmethyl]-benzonitrile] |
| > 4.39 µM | Cc1cc(Br)cc(Br)c1OCC(=O)NNC(=O)Nc1ccccc1 [2-[(2,4-dibromo-6-methylphenoxy)acetyl]-N-phenylhydrazinecarboxamide] |
| > 119 µM | N#Cc1ccccc1CSc1nc2cc(Br)c[nH]c-2n1 [2-[(6-bromo-1H-imidazo[4,5-b]pyridin-2-yl)sulfanylmethyl]benzonitrile] |
| > 119 µM | COc1ccc(NC(=O)COC(=O)CCCOc2ccc(Cl)cc2Cl)cc1 [4-(2,4-dichlorophenoxy)butanoic acid [2-(4-methoxyanilino)-2-oxoethyl] ester] |
| > 119 µM | O=C(Nc1cccnc1)c1ccc(COc2cc(Cl)ccc2Cl)o1 [5-[(2,5-dichlorophenoxy)methyl]-N-(3-pyridinyl)-2-furancarboxamide] |
| > 119 µM | Fc1ccccc1CSc1nc2ncc(Br)cc2[nH]1 [6-bromanyl-2-[(2-fluorophenyl)methylsulfanyl]-1H-imidazo[4,5-b]pyridine] |
| > 119 µM | COc1ccccc1NS(=O)(=O)c1cc(NC(=O)Nc2ccccc2)ccc1N1CCCCC1 [MLS000401499] |
| > 119 µM | O=C(CSc1ccc(-c2nc3ccccc3[nH]2)cn1)Nc1ccc(S(=O)(=O)N2CCCC2)cc1 [MLS000548715] |
| > 119 µM | Cc1cc(Cl)ccc1OCCCC(=O)NNC(=O)c1ccccc1O [N'-[4-(4-chloro-2-methylphenoxy)butanoyl]-2-hydroxybenzohydrazide] |
| > 119 µM | Cc1ccc2nc(-c3ccc(SCC(=O)Nc4ccc5c(c4)OCCO5)nc3)[nH]c2c1 [N-(2,3-dihydro-1,4-benzodioxin-6-yl)-2-[[5-(6-methyl-1H-benzimidazol-2-yl)-2-pyridinyl]thio]acetamide] |
| > 119 µM | O=C(Nc1ccccc1)Nc1ccc(S(=O)(=O)N2CCCCC2)cc1 [SMR000070822] |
| > 119 µM | O=C(Cc1ccc(Br)cc1)NNC(=O)Nc1ccc(Cl)cc1 [SMR000227759] |
| > 119 µM | O=C(CSc1nc2ccc(Cl)cc2[nH]1)c1c[nH]c2ccccc12 [SMR000261830] |
| > 119 µM | COc1ccc(CC(=O)OCC(=O)Nc2ccc(Br)cc2)cc1 [SMR000353950] |
| > 119 µM | CC(N=Nc1nc2ccccc2[nH]1)c1ccc2c(c1)OCO2 (stereo not drawn) [SMR000354227] |
| > 119 µM | COc1cc(OC)c(OC)cc1CN=Nc1nc2ccccc2[nH]1 [SMR000440059] |
| > 119 µM | Cc1csc(CNc2ncnc3ccc(-c4ccccc4Cl)cc23)c1 [SMR001318042] |
| > 119 µM | O=C(OCC(=O)c1c[nH]c2ccccc12)c1ccc(OC(F)F)cc1 [[2-(1H-indol-3-yl)-2-oxidanylidene-ethyl] 4-[bis(fluoranyl)methoxy]benzoate] |
